The supplement of paper PMC11451515

Test system: P12-Ichikawa
Assay: cell viability relative to DMSO control; higher = less cytotoxic
Conditions: 48 h
Method in brief: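 Viability is expressed as a percentage of DMSO wells within each plate, and cell-free wells serve as background. Seeding densities in the 1536-well plates (5 μl) were 500 cells/well for NOMO1 or SEM leukemia cells and 1000 cells/well for P12-Ichikawa. Each line was adapted for at least four passages in each medium. Library compounds in DMSO were pin-dosed at 47 μM to 0.79 nM (11 points, threefold), and CellTiter-Glo One luminescence was read after 48 h at 37°C.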

[1] = HPLM + 10% dialyzed FBS, 0.000781 µM
[2] = HPLM + 10% dialyzed FBS, 0.00234 µM
[3] = HPLM + 10% dialyzed FBS, 0.00702 µM
[4] = HPLM + 10% dialyzed FBS, 0.0211 µM
[5] = HPLM + 10% dialyzed FBS, 0.0632 µM
[6] = HPLM + 10% dialyzed FBS, 0.19 µM
[7] = HPLM + 10% dialyzed FBS, 0.569 µM
[8] = HPLM + 10% dialyzed FBS, 1.71 µM
[9] = HPLM + 10% dialyzed FBS, 5.12 µM
[10] = HPLM + 10% dialyzed FBS, 15.4 µM
[11] = HPLM + 10% dialyzed FBS, 46.1 µM
[12] = RPMI 5 mM glucose + 10% FBS, 0.000781 µM
[13] = RPMI 5 mM glucose + 10% FBS, 0.00234 µM
[14] = RPMI 5 mM glucose + 10% FBS, 0.00702 µM
[15] = RPMI 5 mM glucose + 10% FBS, 0.0211 µM
[16] = RPMI 5 mM glucose + 10% FBS, 0.0632 µM
[17] = RPMI 5 mM glucose + 10% FBS, 0.19 µM
[18] = RPMI 5 mM glucose + 10% FBS, 0.569 µM
[19] = RPMI 5 mM glucose + 10% FBS, 1.71 µM
[20] = RPMI 5 mM glucose + 10% FBS, 5.12 µM
[21] = RPMI 5 mM glucose + 10% FBS, 15.4 µM
[22] = RPMI 5 mM glucose + 10% FBS, 46.1 µM
[23] = RPMI 5 mM glucose + 10% dialyzed FBS, 0.000781 µM
[24] = RPMI 5 mM glucose + 10% dialyzed FBS, 0.00234 µM
[25] = RPMI 5 mM glucose + 10% dialyzed FBS, 0.00702 µM
[26] = RPMI 5 mM glucose + 10% dialyzed FBS, 0.0211 µM
[27] = RPMI 5 mM glucose + 10% dialyzed FBS, 0.0632 µM
[28] = RPMI 5 mM glucose + 10% dialyzed FBS, 0.19 µM
[29] = RPMI 5 mM glucose + 10% dialyzed FBS, 0.569 µM
[30] = RPMI 5 mM glucose + 10% dialyzed FBS, 1.71 µM
[31] = RPMI 5 mM glucose + 10% dialyzed FBS, 5.12 µM
[32] = RPMI 5 mM glucose + 10% dialyzed FBS, 15.4 µM
[33] = RPMI 5 mM glucose + 10% dialyzed FBS, 46.1 µM

SMILES	cell viability [1] [%]	cell viability [2] [%]	cell viability [3] [%]	cell viability [4] [%]	cell viability [5] [%]	cell viability [6] [%]	cell viability [7] [%]	cell viability [8] [%]	cell viability [9] [%]	cell viability [10] [%]	cell viability [11] [%]	cell viability [12] [%]	cell viability [13] [%]	cell viability [14] [%]	cell viability [15] [%]	cell viability [16] [%]	cell viability [17] [%]	cell viability [18] [%]	cell viability [19] [%]	cell viability [20] [%]	cell viability [21] [%]	cell viability [22] [%]	cell viability [23] [%]	cell viability [24] [%]	cell viability [25] [%]	cell viability [26] [%]	cell viability [27] [%]	cell viability [28] [%]	cell viability [29] [%]	cell viability [30] [%]	cell viability [31] [%]	cell viability [32] [%]	cell viability [33] [%]
COc1cccc2c1[C@]13CCN(CC4CC4)[C@H](C2)[C@]1(OC)CCC(=O)C3	99.7	120	66.7	124	125	122	121	121	127	116	119	94.6	113	56.9	110	136	129	127	121	123	117	123	92.9	120	68.7	120	123	127	133	118	122	127	116
Nc1ncnc2c1nc(Cl)n2[C@@H]1O[C@H](CO)[C@@H](O)[C@H]1O	123	125	125	121	121	122	126	125	118	103	58.7	–	–	–	–	–	–	–	–	–	–	–	–	–	–	–	–	–	–	–	–	–	–
Cc1c[nH]c(-c2cnc(NCCNc3ccc(C#N)cn3)nc2-c2ccc(Cl)cc2Cl)n1	75.2	83.3	80.6	88.1	87.7	88.9	88.3	94.3	91.2	91.1	16.4	67.6	82.5	77.7	78.7	79.9	80.6	78.9	83.5	75	89.1	24.8	75.1	85.3	80.2	80	81	82.2	78.8	80.6	84.1	92.9	29.9
C[C@H]1O[C@H](C[C@H](O)[C@@H]1O)O[C@H]2[C@@H](O)C[C@@H](O[C@@H]2C)O[C@H]3[C@@H](O)C[C@@H](O[C@@H]3C)O[C@H]4CC[C@@]5(C)[C@H](CC[C@@H]6[C@@H]5C[C@@H](O)[C@]7(C)[C@H](CC[C@]67O)C/8=C/C(=O)OC8)C4	116	128	123	111	33.5	13.3	12.7	12.8	14.3	20.5	17.2	115	123	124	110	86.5	58.1	12.3	10.4	9.93	12.4	11.7	113	111	117	110	76.4	32.5	13.3	10.7	8.02	8.92	6.92
N#C/C(C(=O)c1ccc(Cl)cc1Cl)=C1/NC(=O)c2ccc(Cl)cc2N1	114	123	108	115	111	111	110	106	103	107	107	115	119	117	107	106	111	107	103	105	105	94.2	106	106	107	110	112	98.9	107	104	97.8	101	98.3
CC(O)C1C2C(C)\C(=C(/N2C1=O)C(O)=O)SC3CNC(C3)C(=O)N(C)C (stereo unspecified)	84	82.1	86.8	88.3	93.2	92.9	99.6	96.5	90.4	92.8	88.1	77.1	78.2	79.4	81.7	82.3	85.5	82.7	77.6	84.7	88.2	85.6	85.7	80	85.8	88	88.8	89.2	86.2	86.2	86.5	88.2	95.5
COc1cc(C)c(Sc2cnc(NC(=O)c3ccc(CNC(C)C(C)C)cc3)s2)cc1C(=O)N1CCN(C(C)=O)CC1 (stereo unspecified)	118	125	119	129	119	118	117	107	103	90.1	109	–	–	–	–	–	–	–	–	–	–	–	–	–	–	–	–	–	–	–	–	–	–
C[C@@]1(C(=O)Nc2ccc(F)nc2)CCCN1c1nc(Nc2cc(C3CC3)[nH]n2)c2cccn2n1	103	109	111	112	114	112	117	114	11.6	15.1	18.6	119	116	130	113	124	120	124	116	21.9	23.2	27.5	107	122	135	121	129	126	131	121	32.2	41	43
NC(=O)OCC(COC(N)=O)c1ccccc1	–	–	–	–	–	–	–	–	–	–	–	118	123	120	118	126	113	136	115	116	113	108	–	–	–	–	–	–	–	–	–	–	–
